Assay [1] has as its system E. coli B. Put plainly: Colony formation by E. coli B (Example 1). In kind it is cell-based. Particulars: 37° C. The protocol: (1) E. coli, E. coli B was grown in M-9 medium supplemented with glucose ([…]) and 1% casamino acids. The cells were harvested in mid-log phase and resuspended in 50 μL of fresh medium containing 0-160 μM oligomer at a final cell density of 1×10^4 cells/mL. The cells were incubated for 1 h at 37° C. and then diluted with 0.9 mL of medium. A 0.8-mL aliquot was added to 2.5 mL of 0.8% Bactoagar at 45° C. This solution was quickly poured onto a 100-mm plate containing solid 1.2% Bactoagar. After solidification, the plates were incubated overnight at 37° C. and the resulting colonies were counted.

For assay [2], the system named is transformed human fibroblast (HTB 1080) cells. The experiment in a line: Colony formation by transformed human fibroblasts (Example 1). In kind it is cell-based. The following applies: 50 μM; 37° C. The protocol: (2) Transformed Syrian Hamster Embryonic Fibroblasts (BP-6) and Transformed Human Fibroblasts (HTB1080). Colony formation by the fibroblasts in the presence of the methylphosphonate analogues was carried out as described by Miller et al, Biochemistry 16, 1988 (1977).

As to d-ApT, the “% inhibition of colony formation, E. coli B” value in assay [1] (50 μM) turned out to be 4%; in assay [1] (160 μM), 5%. Moreover, the “% inhibition of colony formation, HBT 1080” value in assay [2] came to 12%.

Source of the values: US4757055A, “Method for selectively controlling unwanted expression or function of foreign nucleic acids in animal or mammalian cells” (The Johns Hopkins University, priority 1984, dated 1988).
